Measured values from patent US9302999B2, “Substituted triazoles as herbicides” (E. I. DU PONT DE NEMOURS AND COMPANY, priority 2012, dated 2016).

Tests used:
Format in all cases: in vivo
[1] = test system: panicum, fall (fall panicum Panicum dichotomiflorum); test: Test F pre-/postemergence: panicum, fall; conditions: Preemergence
Summary of the method: (§1)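 Visual response scores, 0 meaning no effect and 100 complete control, were assigned against untreated controls 14 to 21 days after treatment. Test chemicals in a surfactant-containing non-phytotoxic solvent were applied preemergence to seeded silt loam soil or postemergence to 2–18 cm plants in peat-based medium.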

[2] = test system: blackgrass (Alopecurus myosuroides); test: Test D pre-/postemergence: blackgrass
Summary of the method: (§2)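 Visual control ratings (0–100) after 14–21 days, controlled environment. Preemergence on silt loam; postemergence on 2–18 cm plants.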

[3] = test system: galium (catchweed bedstraw, Galium aparine); test: Test D pre-/postemergence: galium; conditions: Postemergence; for Plant response rating, Galium: 16 g ai/ha, scale 0 to 100
Summary of the method: as §2

[4] = test system: ryegrass, Italian (Italian ryegrass, Lolium multiflorum); test: Test F pre-/postemergence: ryegrass, Italian; conditions: Preemergence
Text: (§3) Seeds of plant species selected from corn (Zea mays), soybean (Glycine max), velvetleaf (Abutilon theophrasti), lambsquarters (Chenopodium album), poinsettia, wild (wild poinsettia, Euphorbia heterophylla), pigweed, palmer (palmer pigweed, Amaranthus palmeri), waterhemp (common waterhemp, Amaranthus rudis), surinam grass (Brachiaria decumbens), crabgrass, Brazil (Brazilian crabgrass, Digitaria horizontalis), panicum, fall (fall panicum Panicum dichotomiflorum), crabgrass, large (large crabgrass, Digitaria sanguinalis), foxtail, giant (giant foxtail, Setaria faberii), foxtail, green (green foxtail Setaria viridis), goosegrass (Eleusine indica), ragweed (common ragweed, Ambrosia elatior), barnyardgrass (Echinochloa crus-galli), sandbur (southern sandbur, Cenchrus echinatus), arrowleaf sida (Sida rhombifolia), ryegrass, Italian (Italian ryegrass, Lolium multiflorum), dayflower, VA (Virginia (VA) dayflower, Commelina virginica), field bindweed (Convolvulus arvensis), cocklebur (common cocklebur, Xanthium strumarium), morningglory (Ipomoea coccinea), nightshade (eastern black nightshade, Solanum ptycanthum), kochia (Kochia scoparia), nutsedge, yellow (yellow nutsedge, Cyperus esculentus), johnsongrass (Sorghum halepense), smartweed (ladysthumb smartweed, Polygonum persicaria), and beggarticks (hairy beggarticks, Bidens pilosa), were planted into a silt loam soil and treated preemergence with test chemicals formulated in a non-phytotoxic solvent mixture which included a surfactant. At the same time, plants selected from these crop and weed species and also pigweed (Amaranthus retroflexus), waterhemp_RES1 (ALS/Triazine resistant common waterhemp, Amaranthus rudis) and waterhemp_RES2 (ALS/HPPD resistant common waterhemp, Amaranthus rudis) were planted in pots containing a planting medium comprising spaghnum peat moss, vermiculite, wetting agent and starter nutrients treated with postemergence applications of some of the test chemicals formulated in the same manner. Plants ranged in height from 2 to 18 cm for postemergence treatments (1- to 4-leaf stage).
(§4) Treated plants and controls were maintained in a greenhouse for 14 to 21 days, after which time all species were compared to controls and visually evaluated. Plant response ratings, summarized in Table E, are based on a scale of 0 to 100 where 0 is no effect and 100 is complete control. A dash (-) response means no test result.

[5] = test system: oilseed rape (Brassica napus); test: Test D pre-/postemergence: oilseed rape
Summary of the method: as §2

[6] = test system: lambsquarters (Chenopodium album); test: Test F pre-/postemergence: lambsquarters; conditions: Preemergence
Summary of the method: as §1

[7] = test system: foxtail, giant (giant foxtail, Setaria faberii); test: Test F pre-/postemergence: foxtail, giant; conditions: Preemergence
Text: as §3, §4

[8] = 16 g ai/ha, scale 0 to 100, 0 no effect, 100 complete control
[9] = 31 g ai/ha, scale 0 to 100, 0 no effect, 100 complete control
[10] = Postemergence, 31 g ai/ha, scale 0 to 100 (0 no effect, 100 complete control)
[11] = Postemergence, 62 g ai/ha, scale 0 to 100 (0 no effect, 100 complete control)
[12] = Postemergence, 125 g ai/ha, scale 0 to 100, 0 no effect, 100 complete control
[13] = Postemergence, 16 g ai/ha, scale 0 to 100
[14] = Preemergence, 16 g ai/ha, scale 0 to 100, 0 no effect, 100 complete control
[15] = Preemergence, 31 g ai/ha, scale 0 to 100, 0 no effect, 100 complete control
[16] = Preemergence, 62 g ai/ha, scale 0 to 100
[17] = Preemergence, 125 g ai/ha, scale 0 to 100
[18] = 31 g ai/ha, scale 0 to 100 (0 no effect, 100 complete control)
[19] = 62 g ai/ha, scale 0 to 100 (0 no effect, 100 complete control)
[20] = 125 g ai/ha, scale 0 to 100, 0 no effect, 100 complete control

Row | SMILES | Plant response rating, Panicum, Fall ([1]; 125 g ai/ha, scale 0 to 100) | Plant response rating, Panicum, Fall ([1]; 250 g ai/ha, scale 0 to 100) | Plant response rating: Blackgrass [2, 10] | Plant response rating: Blackgrass [2, 11] | Plant response rating: Blackgrass [2, 12] | Plant response rating, Blackgrass [2, 13] | Plant response rating, Blackgrass [2, 14] | Plant response rating, Blackgrass [2, 15] | Plant response rating, Blackgrass [2, 16] | Plant response rating, Blackgrass [2, 17] | Plant response rating: Galium [3, 18] | Plant response rating: Galium [3, 19] | Plant response rating: Galium [3, 20] | Plant response rating, Galium [3] | Plant response rating, Ryegrass, Italian ([4]; 125 g ai/ha, scale 0 to 100) | Plant response rating, Ryegrass, Italian ([4]; 250 g ai/ha, scale 0 to 100) | Plant response rating: Oilseed Rape [5, 10] | Plant response rating: Oilseed Rape [5, 11] | Plant response rating: Oilseed Rape [5, 12] | Plant response rating, Oilseed Rape [5, 13] | other results
1 | Cc1nn(-c2ccc(C(F)(F)F)c(F)c2)nc1Oc1ccnc(C(F)(F)F)c1 [Compound 148] | 100 | 100 | 15 | 30 | 65 | 10 | 0 | 10 | 5 | 5 | 70 | 70 | 75 | 60 | 95 | 100 | 35 | 80 | 100 | 30 | Plant response rating, Panicum, Fall [1, 8]: 75; Plant response rating, Panicum, Fall [1, 9]: 85; Plant response rating, Ryegrass, Italian [4, 8]: 0; Plant response rating, Ryegrass, Italian [4, 9]: 0; Plant response rating, Oilseed Rape [5, 14]: 5; Plant response rating, Oilseed Rape [5, 15]: 0; Plant response rating, Oilseed Rape [5, 16]: 10; Plant response rating, Oilseed Rape [5, 17]: 20; Plant response rating, Lambsquarters [6, 8]: 0; Plant response rating, Lambsquarters [6, 9]: 50; Plant response rating, Lambsquarters ([6]; 62 g ai/ha, scale 0 to 100): 98; Plant response rating, Lambsquarters ([6]; 125 g ai/ha, scale 0 to 100): 100; Plant response rating, Lambsquarters ([6]; 250 g ai/ha, scale 0 to 100): 100; Plant response rating, Foxtail, Giant [7, 8]: 25; Plant response rating, Foxtail, Giant [7, 9]: 95; Plant response rating, Foxtail, Giant ([7]; 62 g ai/ha, scale 0 to 100): 100; Plant response rating, Foxtail, Giant ([7]; 125 g ai/ha, scale 0 to 100): 100; Plant response rating, Foxtail, Giant ([7]; 250 g ai/ha, scale 0 to 100): 100
2 | CCc1nn(-c2ccc(C(F)(F)F)cc2)nc1Cc1ccnc(C(F)(F)F)c1 [Compound 155] | 100 | 100 | 50 | 60 | 85 | 5 | 5 | 10 | 20 | 70 | 70 | 70 | 75 | 65 | 85 | 95 | 100 | 100 | 100 | 85 | Plant response rating, Oilseed Rape [5, 14]: 0; Plant response rating, Oilseed Rape [5, 15]: 5; Plant response rating, Oilseed Rape [5, 16]: 100; Plant response rating, Oilseed Rape [5, 17]: 100; Plant response rating, Lambsquarters ([6]; 62 g ai/ha, scale 0 to 100): 98; Plant response rating, Lambsquarters ([6]; 125 g ai/ha, scale 0 to 100): 98; Plant response rating, Lambsquarters ([6]; 250 g ai/ha, scale 0 to 100): 98; Plant response rating, Foxtail, Giant ([7]; 62 g ai/ha, scale 0 to 100): 98; Plant response rating, Foxtail, Giant ([7]; 125 g ai/ha, scale 0 to 100): 100; Plant response rating, Foxtail, Giant ([7]; 250 g ai/ha, scale 0 to 100): 100
